Assay results reported in BindingDB's records for doi:10.1021/jm401195n (Fudan University, 2013).

Target: Indoleamine 2,3-dioxygenase 1 (Homo sapiens, UniProt P14902)
Assay: Inhibition of human IDO1 expressed in HEK293 cells assessed as kynurenine release after 5 hrs by spectrophotometry

Sequence of Indoleamine 2,3-dioxygenase 1 (P14902 whole entry): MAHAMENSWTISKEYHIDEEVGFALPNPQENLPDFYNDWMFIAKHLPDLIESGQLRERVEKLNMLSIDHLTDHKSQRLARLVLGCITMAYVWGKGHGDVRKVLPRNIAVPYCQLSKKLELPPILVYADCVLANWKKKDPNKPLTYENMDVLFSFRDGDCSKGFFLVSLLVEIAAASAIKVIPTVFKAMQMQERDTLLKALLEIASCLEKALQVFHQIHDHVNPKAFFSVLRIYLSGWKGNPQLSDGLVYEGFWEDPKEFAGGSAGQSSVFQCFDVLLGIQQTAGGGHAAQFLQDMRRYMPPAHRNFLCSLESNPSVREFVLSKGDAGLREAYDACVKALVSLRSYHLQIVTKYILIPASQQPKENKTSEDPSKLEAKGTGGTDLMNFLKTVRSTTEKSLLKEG

Structure (SMILES): O=C1c2cc([N+](=O)[O-])ccc2-n2c1nc1ccccc1c2=O
- IC50: 0.018 nM
